Test results published in patent US20230295140A1, “INHIBITORS OF VAP-1” (Acucela Inc., priority 2021, published 2023).
Counter-ions that a name gives are not always drawn.

Assays:
Format in all cases: biochemical
rhVAP-1 = rhVAP-1 (Homo sapiens (Human), UniProt Q16853); assay: VAP-1 fluorometric assay (Amplex Red/HRP, benzylamine substrate); conditions: class symbols, ranges defined in μM
Method: The capability of compounds described herein to inhibit the enzymatic activity of vascular adhesion protein-1 (VAP-1) was determined by fluorometric assay. The assay procedure provided by R&D Systems was modified slightly for use as an inhibitor screening assay. The assay measured the H2O2 generated from the oxidative deamination of benzylamine by rhVAP-1 by converting Amplex® Red to the fluorescent product, resorufin, via horseradish peroxidase (HRP) and H2O2. Reaction buffer was 10 mM NaHCO3, pH 7.4. A standard curve was prepared by serially diluting H2O2 in reaction buffer. A 10 μM solution of resorufin was prepared in reaction buffer and was dispensed to 2 wells. These wells served as positive control for maximum fluorescence. Reaction buffer was added to the individual wells so that the final volume in each well was 100 μL. Amplex Red was diluted to 1 mM in reaction buffer. A 10 U stock of HRP was prepared in reaction buffer. A reaction cocktail was prepared by mixing equal parts 1 mM Amplex Red with 10 U HRP with 3 parts reaction buffers. The reaction cocktail was added to the appropriate wells, so that that final concentration in the well was 0.05 mM Amplex Red and 0.5 U HRP. A 200 μM solution of benzylamine was prepared in reaction buffer. Benzylamine was added to the appropriate wells so that the final concentration was 50 μM. Inhibitors were diluted in DMSO to 20× and distributed to the appropriate wells. LJP-1207 served a positive control. rhVAP-1 was purchased from R&D Systems. The concentration used for each lot was determined so that the activity was equal to the first lot. Two wells were left blank as controls. The plate was incubated for 30 minutes at 37° C., protected from light under foil. The plate was read at 530/35 emission and 590/35 excitation. Data processing was performed using Excel and Prism software.
The capability of compounds described herein to inhibit the enzymatic activity of vascular adhesion protein-1 (VAP-1) was determined by fluorometric assay. The assay procedure provided by R&D Systems was modified slightly for use as an inhibitor screening assay. The assay measured the H2O2 generated from the oxidative deamination of benzylamine by rhVAP-1 by converting Amplex® Red to the fluorescent product, resorufin, via horseradish peroxidase (HRP) and H2O2. Amplex Red, HRP, Benzylamine, inhibitors (with DMSO as vehicle, 0.5% v/v) and rhVAP-1 were added to the wells. Assay was conducted in 10 mM NaHCO3, pH 7.4. A standard curve was prepared by serially diluting H2O2 in reaction buffer. The plate was incubated for 30 minutes at 37° C., protected from light under foil. The plate was read at 530/35 emission and 590/35 excitation. Data processing was performed using Prism software.

rhMAO-B = rhMAO-B (Homo sapiens (Human), UniProt P27338); assay: MAO-Glo assay, MAO-B inhibition
Method: (§1) The capability of compounds described herein to inhibit MAO was determined using a modified Promega MAO-Glo™ assay kit. The substrate ((4S)-4,5-dihydro-2-(6-hydroxybenzothiazolyl)-4-thiazolecarboxylic acid) was converted by MAO to produce methyl ester luciferin. The luciferin was then converted by luciferase to produce oxyluciferin and light. The light was measured using a luminescence setting on the plate reader. A standard curve was prepared by serially diluting luciferin in reaction buffer. The standard kit reaction buffer was used—100 mM HEPES (pH 7.5), 5% glycerol. The substrate was dispensed into the wells so that the final concentration for MAO-A inhibition assay would be 10 μM and MAO-B inhibition assay would be […]. Inhibitors were diluted in DMSO to 4× and distributed to the appropriate wells. Clorgyline and Deprenyl served as positive controls. rhMAO-A and rhMAO-B were purchased from Sigma. MAO-A or MAO-B was added to the appropriate wells. The plate was incubated for 1 hour, at room temperature with gentle shaking (90 rpm). The detection agent was added at equal volume (48 μL detection agent to 48 μL reaction). The plate was incubated for 20 minutes, at room temperature with gentle shaking (90 rpm). The plate luminescence was read. Data processing was performed using Prism software.
(§2) The capability of compounds described herein to inhibit MAO was determined using a modified Promega MAO-Glo™ assay. Test compounds, substrate and enzyme were incubated per manufacturer instructions for 1 hour, at room temperature with gentle shaking (90 rpm) before addition of detection agent. The detection agent was added at equal volume (48 μL detection agent to 48 μL reaction). The plate was incubated for 20 minutes, at room temperature with gentle shaking (90 rpm). The plate luminescence was read. Data processing was performed using Prism software.

rhMAO-A = rhMAO-A (Homo sapiens (Human), UniProt P21397); assay: MAO-Glo assay, MAO-A inhibition
Method: as §1, §2

[1] = class symbols, ranges defined in μM

rhMAO-B, sequence (P27338 whole entry): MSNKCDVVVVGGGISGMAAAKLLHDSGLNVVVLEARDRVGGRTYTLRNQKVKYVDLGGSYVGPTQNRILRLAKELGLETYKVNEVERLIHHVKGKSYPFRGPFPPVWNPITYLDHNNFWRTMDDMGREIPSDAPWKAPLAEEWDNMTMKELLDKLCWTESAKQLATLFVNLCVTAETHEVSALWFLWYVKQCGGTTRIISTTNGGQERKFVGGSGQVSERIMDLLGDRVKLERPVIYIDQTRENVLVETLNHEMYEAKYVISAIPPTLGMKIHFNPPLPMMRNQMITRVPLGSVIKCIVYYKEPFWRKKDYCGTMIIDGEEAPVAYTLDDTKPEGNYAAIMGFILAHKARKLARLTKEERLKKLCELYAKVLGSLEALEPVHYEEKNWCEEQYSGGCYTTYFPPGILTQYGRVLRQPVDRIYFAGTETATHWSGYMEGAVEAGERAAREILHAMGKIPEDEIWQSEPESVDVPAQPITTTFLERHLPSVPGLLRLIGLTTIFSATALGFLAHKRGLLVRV
rhMAO-A, sequence (P21397 whole entry): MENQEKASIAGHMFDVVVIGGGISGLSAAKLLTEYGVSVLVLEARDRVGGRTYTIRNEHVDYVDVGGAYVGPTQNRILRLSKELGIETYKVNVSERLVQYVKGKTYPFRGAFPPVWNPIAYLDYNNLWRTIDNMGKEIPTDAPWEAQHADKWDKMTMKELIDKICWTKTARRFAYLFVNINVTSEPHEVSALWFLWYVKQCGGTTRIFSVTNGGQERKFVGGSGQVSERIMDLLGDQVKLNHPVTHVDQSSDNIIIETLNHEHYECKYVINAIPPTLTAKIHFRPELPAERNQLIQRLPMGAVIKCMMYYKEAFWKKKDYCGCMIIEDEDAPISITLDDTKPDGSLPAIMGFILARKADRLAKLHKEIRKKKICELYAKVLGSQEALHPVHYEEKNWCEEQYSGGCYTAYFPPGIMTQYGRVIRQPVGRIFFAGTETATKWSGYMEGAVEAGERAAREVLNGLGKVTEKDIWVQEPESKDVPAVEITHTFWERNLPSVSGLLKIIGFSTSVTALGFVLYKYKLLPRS
rhVAP-1, sequence (Q16853 whole entry): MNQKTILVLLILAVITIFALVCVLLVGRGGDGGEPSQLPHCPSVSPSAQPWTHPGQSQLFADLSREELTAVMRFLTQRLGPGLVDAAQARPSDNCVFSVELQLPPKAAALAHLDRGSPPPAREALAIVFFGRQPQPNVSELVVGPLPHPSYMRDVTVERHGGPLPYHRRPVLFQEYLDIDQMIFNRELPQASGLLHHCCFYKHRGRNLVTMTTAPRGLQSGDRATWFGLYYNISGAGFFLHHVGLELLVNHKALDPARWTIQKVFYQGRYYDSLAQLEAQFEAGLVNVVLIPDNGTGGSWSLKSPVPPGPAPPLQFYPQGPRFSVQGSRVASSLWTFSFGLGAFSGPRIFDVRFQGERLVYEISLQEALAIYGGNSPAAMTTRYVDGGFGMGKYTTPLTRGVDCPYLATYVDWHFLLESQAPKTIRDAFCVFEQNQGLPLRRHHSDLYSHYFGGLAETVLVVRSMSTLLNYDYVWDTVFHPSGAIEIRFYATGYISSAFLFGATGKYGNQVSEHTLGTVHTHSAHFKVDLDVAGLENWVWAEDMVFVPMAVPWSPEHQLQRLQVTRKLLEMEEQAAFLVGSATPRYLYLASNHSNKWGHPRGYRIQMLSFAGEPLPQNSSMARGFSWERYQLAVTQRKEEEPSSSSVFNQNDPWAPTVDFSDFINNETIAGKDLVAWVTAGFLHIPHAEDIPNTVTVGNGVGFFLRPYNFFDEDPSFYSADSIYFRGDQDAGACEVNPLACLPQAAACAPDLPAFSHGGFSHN

IC50 (rhVAP-1)	IC50 (rhMAO-B; number printed in cell)	IC50 (rhMAO-A; [1])	IC50 (rhMAO-A; bound printed in cell)	IC50 (rhMAO-B; [1])	Compound	IC50 (rhMAO-B; bound printed in cell)
< 0.1 µM	0.637 µM	10 to 30 µM			COc1ccc(CNc2nc3ccc(OC/C(=C/F)CN)cc3o2)cc1 [Example 24, (E)-6-((2-(aminomethyl)-3-fluoroallyl)oxy)-N-(4-methoxybenzyl)benzo[d]oxazol-2-amine 4-methylbenzenesulfonate]	
1 to 10 µM		1 to 10 µM		1 to 10 µM	CC(C)(C)CNc1nc2ccc(OC/C(=C/F)CN)cc2o1 [Example 59, (E)-6-((2-(aminomethyl)-3-fluoroallyl)oxy)-N-neopentylbenzo[d]oxazol-2-amine (4-methylbenzenesulfonate)]	
0.1 to 1 µM					CCCCc1nc2ccc(OC/C(F)=C\CN)cc2o1 [Example 16, (E)-4-((2-butylbenzo[d]oxazol-6-yl)oxy)-3-fluorobut-2-en-1-amine]	
< 0.1 µM		10 to 30 µM		< 0.1 µM	CCCCc1nc2ccc(COC/C(=C/F)CN)cc2o1 [Example 28, (E)-2-(((2-butylbenzo[d]oxazol-6-yl)methoxy)methyl)-3-fluoroprop-2-en-1-amine]	
< 0.1 µM			> 50 µM	1 to 10 µM	Cc1cc(CNc2nc3ccc(OC/C(=C/F)CN)cc3o2)cc(C)n1 [Example 91, (E)-6-((2-(Aminomethyl)-3-fluoroallyl)oxy)-N-((2,6-dimethylpyridin-4-yl)methyl)benzo[d]oxazol-2-amine trihydrochloride]	
< 0.1 µM		10 to 30 µM		10 to 30 µM	CCCCc1nc2ccc(OCC(CN)=C(F)F)cc2o1 [Example 32, 2-(((2-butylbenzo[d]oxazol-6-yl)oxy)methyl)-3,3-difluoroprop-2-en-1-amine hydrochloride]	
< 0.1 µM			> 50 µM	1 to 10 µM	CC1CN(c2nc3ccc(OC/C(=C/F)CN)cc3o2)C(C)(C)C1 (stereo not drawn) [Example 86, (E)-3-fluoro-2-(((2-(2,2,4-trimethylpyrrolidin-1-yl)benzo[d]oxazol-6-yl)oxy)methyl)prop-2-en-1-amine 4-methylbenzenesulfonate]	
< 0.1 µM		1 to 10 µM		1 to 10 µM	CCCNc1nc2ccc(OC/C(=C\F)CN)c(F)c2s1 [Example 14, (Z)-6-((2-(aminomethyl)-3-fluoroallyl)oxy)-7-fluoro-N-propylbenzo[d]thiazol-2-amine 4-methylbenzenesulfonate]	
< 0.1 µM		< 0.1 µM		< 0.1 µM	CCCCc1nc2ccc(OC/C(=C/F)CN)cc2o1 [Example 1, (E)-2-(((2-butylbenzo[d]oxazol-6-yl)oxy)methyl)-3-fluoroprop-2-en-1-amine 4-methylbenzenesulfonate]	
< 0.1 µM				< 0.1 µM	CCCCc1nc2ccc(OC/C(=C\F)CN)c(F)c2s1 [Example 15, (Z)-2-(((2-butyl-7-fluorobenzo[d]thiazol-6-yl)oxy)methyl)-3-fluoroprop-2-en-1-amine 4-methylbenzenesulfonate]	
0.1 to 1 µM					CCCCc1nc2ccc(/C=C(/F)CN)cc2o1 [Example 95, (E)-3-(2-butylbenzo[d]oxazol-6-yl)-2-fluoroprop-2-en-1-amine]	
< 0.1 µM					CCCCc1nc2ccc(CCC(=CF)CN)cc2o1 [Example 52, 4-(2-butylbenzo[d]oxazol-6-yl)-2-(fluoromethylene)butan-1-amine 4-methylbenzenesulfonate]	
0.1 to 1 µM					C=C(CN)C(F)(F)Oc1ccc2nc(CCCC)oc2c1 [Example 29, 2-(((2-butylbenzo[d]oxazol-6-yl)oxy)difluoromethyl)prop-2-en-1-amine hydrochloride]	

Compound	IC50 (rhVAP-1)	IC50 (rhMAO-B; number printed in cell)	IC50 (rhMAO-A; [1])	IC50 (rhMAO-A; bound printed in cell)	IC50 (rhMAO-B; [1])	IC50 (rhMAO-B; bound printed in cell)
(Z)-2-((6-((2-(aminomethyl)-3-fluoroallyl)oxy)benzo[d]oxazol-2-yl)amino)-N-methylacetamide (4-methylbenzenesulfonate) [Example 63]	< 0.1 µM			> 40 µM		> 40 µM
NC/C(=C\F)COc1ccc2nc(NCCO)oc2c1 [Example 47, (E)-2-((6-((2-(aminomethyl)-3-fluoroallyl)oxy)benzo[d]oxazol-2-yl)amino)ethan-1-ol 4-methylbenzenesulfonate]	< 0.1 µM		10 to 30 µM		10 to 30 µM	
